{"source": "patent US12329745B2", "about": "“Methods and compositions for treating glucocorticoid excess” (Sparrow Pharmaceuticals, Inc., priority 2022, dated 2025)", "key": {"HSD-1 [1]": {"target": "T1, HSD-1 (Homo sapiens, UniProt P28845)", "T1 sequence (P28845 whole entry)": "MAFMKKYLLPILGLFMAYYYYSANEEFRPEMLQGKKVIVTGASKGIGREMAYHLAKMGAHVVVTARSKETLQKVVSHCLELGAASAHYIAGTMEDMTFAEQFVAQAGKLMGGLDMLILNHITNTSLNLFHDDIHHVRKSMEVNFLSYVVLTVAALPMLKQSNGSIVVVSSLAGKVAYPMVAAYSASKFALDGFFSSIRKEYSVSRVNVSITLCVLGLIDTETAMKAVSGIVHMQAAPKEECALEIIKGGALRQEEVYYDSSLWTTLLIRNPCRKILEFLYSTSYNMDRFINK", "assay": "Surface plasmon resonance binding kinetics in presence of NADPH (residence time)", "details": "300 μM NADPH, reciprocal of the dissociation rate constant", "description": "Pseudo-irreversible HSD-1 inhibitors can be identified via in vitro enzyme kinetics evaluation, in which they are expected to show longer enzyme residence times compared to other HSD-1 inhibitors. Surface plasmon resonance (SPR) is the resonant oscillation of conduction electrons at the interface between negative and positive permittivity material stimulated by incident light. When a protein is bound to a surface, SPR can be used to detect ligand binding to the protein. […] Association and dissociation of test compounds were monitored in the presence of 300 µM NADPH throughout the experiment."}, "[2]": {"system": "urine tetrahydrocortisone", "details": "healthy adults and elderly subjects; 7-21 days; cited from earlier work"}, "[3]": {"details": "cited from earlier work; for plasma exposures after single doses, dose proportionality: low single doses; for estimated target capacity / capacity of saturable distribution: population pharmacokinetics model"}, "[4]": {"details": "cynomolgus monkey liver; cited from earlier work"}, "[5]": {"details": "INCB-13739 diabetes; R05093151 non-alcoholic fatty liver disease; AZD4017 impaired wound healing; ABT-384 dementia; BI-187004 diabetes; cited from earlier work"}, "brain HSD-1": {"target": "T2, brain HSD-1 (Homo sapiens, UniProt P28845)", "T2 construct": "Brain HSD-1 occupancy following a single dose of SPI-62 3 mg; from tissue; host or cells: brain in vivo", "T2 sequence (P28845 whole entry)": "as above", "details": "healthy adults; cited from earlier work"}, "HSD-1 [6]": {"target": "T1, HSD-1", "assay": "Target-mediated drug disposition (TMDD) population PK / PK-PD model", "details": "in vivo"}, "adipose HSD-1": {"target": "T3, adipose HSD-1 (Homo sapiens, UniProt P28845)", "T3 construct": "infused continuously into subcutaneous abdominal adipose tissue via microdialysis catheters; from tissue; host or cells: human subcutaneous abdominal adipose tissue, in vivo", "T3 sequence (P28845 whole entry, the tested form may be a part)": "as the sequence (P28845 whole entry) above", "details": "in vivo; cited from earlier work"}, "skin HSD-1": {"target": "skin HSD-1 (Homo sapiens, UniProt P28845)", "sequence (P28845 whole entry)": "as above", "details": "in vivo; cited from earlier work"}, "liver HSD-1": {"target": "liver HSD-1 (Homo sapiens, UniProt P28845)", "sequence (P28845 whole entry)": "as above", "details": "same subjects, multiple doses; cited from earlier work"}, "mouse": {"system": "mouse", "details": "cited from earlier work"}, "rabbit": {"system": "rabbit", "details": "cited from earlier work"}, "[7]": {"details": "read-out: Residence Time (converted)"}}, "note": "Like-named read-outs stand apart in the source and are kept apart here.", "data": [{"smiles": "CC(C)(C(=O)N[C@H]1C2CC3CC1C[C@@](C(N)=O)(C3)C2)N1CCN(c2ccc(C(F)(F)F)cn2)CC1", "note": "[ABT-384, (1s,3R,4r,5S,7s)-4-(2-methyl-2-(4-(5-(trifluoromethyl)pyridin-2-yl)piperazin-1-yl)propanamido)adamantane-1-carboxamide]", "values": [{"measurement": "residence time", "setting": "HSD-1 [1]; [7]", "value": 43.5, "unit": "min"}, {"measurement": "liver cortisone levels (urine tetrahydrocortisone)", "setting": "[2]", "value": "increased substantially"}, {"measurement": "plasma levels after multiple doses / steady state, dose proportionality", "setting": "[3]; in vivo", "value": "approximately dose-proportional"}, {"measurement": "plasma exposures after single doses, dose proportionality", "setting": "[3]", "value": "substantial non-linearity"}, {"measurement": "estimated target capacity / capacity of saturable distribution", "setting": "[3]", "value": "~1", "unit": "mg"}, {"measurement": "retention in liver", "setting": "[4]", "value": "at least 77 days"}, {"measurement": "clinical trial efficacy", "setting": "[5]", "value": "lack of efficacy"}, {"measurement": "time after cessation of daily administration up to which complete brain HSD-1 inhibition was observed", "setting": "brain HSD-1", "value": "up to 40 hours"}, {"measurement": "Kd lower than the Ki", "setting": "HSD-1 [6]", "value": "approximately 60 fold"}]}, {"smiles": "CC(C)[C@]1(C)SC(N[C@H]2C[C@@H]3CC[C@H]2C3)=NC1=O", "note": "[AMG-221, (S,E)-2-(((1S,2S,4R)-bicyclo[2.2.1]heptan-2-yl)imino)-5-isopropyl-5-methylthiazolidin-4-one]", "values": [{"measurement": "plasma exposures after single doses, dose proportionality", "setting": "[3]", "value": "nonlinearity of pharmacokinetics"}]}, {"smiles": "CCCSc1nc(N2CCC[C@@H](CC(=O)O)C2)ccc1C(=O)NC1CCCCC1", "note": "[AZD4017, (S)-2-(1-(5-(cyclohexylcarbamoyl)-6-(propylthio)pyridin-2-yl)piperidin-3-yl)acetic acid]", "values": [{"measurement": "adipose HSD-1 inhibition after a single dose", "setting": "adipose HSD-1", "value": "demonstrated adipose HSD-1 inhibition"}, {"measurement": "adipose HSD-1 inhibition after repeated dosing", "setting": "adipose HSD-1", "value": "no sustained inhibitory effect"}, {"measurement": "tachyphylaxis of human adipose HSD-1 inhibition with multiple dosing", "setting": "adipose HSD-1", "value": "showed tachyphylaxis"}, {"measurement": "skin HSD-1 inhibition after multiple doses", "setting": "skin HSD-1", "value": "no skin HSD-1 inhibition"}, {"measurement": "liver HSD-1 inhibition", "setting": "liver HSD-1", "value": "maximal"}]}, {"smiles": "CC(C)(C)c1c(C(=O)NC2C3CC4CC(C3)CC2C4)cnn1-c1ccc(C(=O)O)cc1", "note": "(centres unmarked) [AZD8329, 4-(4-(((1r,3r,5r,7r)-adamantan-2-yl)carbamoyl)-5-(tert-butyl)-1H-pyrazol-1-yl)benzoic acid]", "values": [{"measurement": "residence time", "setting": "HSD-1 [1]; [7]", "value": 3.45, "unit": "min"}, {"measurement": "adipose HSD-1 inhibition after repeated dosing", "setting": "adipose HSD-1", "value": "lost"}, {"measurement": "tachyphylaxis of human adipose HSD-1 inhibition with multiple dosing", "setting": "adipose HSD-1", "value": "showed tachyphylaxis"}]}, {"smiles": "N#Cc1ccc2c(c1)[C@H]1CCCN(C(=O)c3ccc4nc[nH]c4c3)[C@H]1C2", "note": "[BI-187004, (4aR,9aS)-1-(1H-benzo[d]imidazole-6-carbonyl)-2,3,4,4a,9,9a-hexahydro-1H-indeno[2,1-b]pyridine-6-carbonitrile]", "values": [{"measurement": "plasma exposures after single doses, dose proportionality", "setting": "[3]", "value": "substantially below"}, {"measurement": "clinical trial efficacy", "setting": "[5]", "value": "lack of efficacy"}]}, {"smiles": "O=C(CC1(c2ccccc2)C2CC3CC1CC(C2)C3O)N1CC(O)C1", "note": "(centres unmarked) [BMS-816336]", "values": [{"measurement": "residence time", "setting": "HSD-1 [1]", "value": 2.15, "unit": "min"}]}, {"smiles": "CC(C)(O)c1cccn2c(C3(c4ccc(Cl)cc4)CC3)nnc12", "note": "[BMS-823778, 2-(3-(1-(4-chlorophenyl)cyclopropyl)-[1,2,4]triazolo[4,3-a]pyridin-8-yl)propan-2-ol]", "values": [{"measurement": "residence time", "setting": "HSD-1 [1]; [7]", "value": 2.03, "unit": "min"}, {"measurement": "plasma levels after a single 0.1 or 0.5 mg dose", "setting": "[3]; in vivo", "value": "not detected"}, {"measurement": "plasma levels after multiple doses / steady state, dose proportionality", "setting": "[3]; in vivo", "value": "dose proportional"}, {"measurement": "plasma exposures after single doses, dose proportionality", "setting": "[3]", "value": "less than dose proportional"}]}, {"smiles": "CC1(C)[C@@H](OC(=O)CCC(=O)O)CC[C@]2(C)[C@H]3C(=O)C=C4[C@@H]5C[C@@](C)(C(=O)O)CC[C@]5(C)CC[C@@]4(C)[C@]3(C)CC[C@@H]12", "note": "[Carbenoxolone]", "values": [{"measurement": "GC-induced wound healing impairment", "setting": "mouse", "value": "prevented"}]}, {"smiles": "CC1(C)[C@@H](O[C@H]2O[C@H](C(=O)O)[C@@H](O)[C@H](O)[C@H]2O[C@@H]2O[C@H](C(=O)O)[C@@H](O)[C@H](O)[C@H]2O)CC[C@]2(C)[C@H]3C(=O)C=C4[C@@H]5C[C@@](C)(C(=O)O)CC[C@]5(C)CC[C@@]4(C)[C@]3(C)CC[C@@H]12", "note": "[Glycyrrhizin]", "values": [{"measurement": "intraocular pressure increase associated with intravitreal triamcinolone", "setting": "rabbit", "value": "partially prevented"}]}, {"smiles": "CNC(=O)c1ccc(-c2ccc(C3(C(=O)N4CC[C@@]5(C4)OC(=O)c4ccccc45)CC3)cc2)cn1", "note": "[INCB-13739]", "values": [{"measurement": "residence time", "setting": "HSD-1 [1]", "value": 4.53, "unit": "min"}, {"measurement": "clinical trial efficacy", "setting": "[5]", "value": "support efficacy"}]}, {"smiles": "CC1CN(CC(=O)NC2C3CC4CC2CC(C(N)=O)(C4)C3)S(=O)(=O)N(c2c(Cl)cc(C(F)(F)F)cc2Cl)C1", "note": "[KR-67607, (1s,3R,4s,5S,7s)-4-(2-(6-(2,6-dichloro-4-(trifluoromethyl)phenyl)-4-methyl-1,1-dioxido-1,2,6-thiadiazinan-2-yl)acetamido)adamantane-1-carboxamide]", "values": [{"measurement": "residence time", "setting": "HSD-1 [1]; [7]", "value": 8.63, "unit": "min"}]}, {"smiles": "CCS(=O)(=O)CCCC12CCC(c3nnc(-c4ccccc4C(F)(F)F)n3C)(CC1)CC2", "note": "[MK-0736, 3-(4-(3-(ethylsulfonyl)propyl)bicyclo[2.2.2]octan-1-yl)-4-methyl-5-(2-(trifluoromethyl)phenyl)-4H-1,2,4-triazole]", "values": [{"measurement": "plasma exposures after single doses, dose proportionality", "setting": "[3]", "value": "non-linear, saturable distribution PK"}]}, {"smiles": "F[C@H]1C[C@@](c2ccc(Cl)cc2)(c2nnc(C3CC3)n2C2CC2)C1", "note": "[MK-0916, 3-((1s,3s)-1-(4-chlorophenyl)-3-fluorocyclobutyl)-4,5-dicyclopropyl-4H-1,2,4-triazole]", "values": [{"measurement": "residence time", "setting": "HSD-1 [1]; [7]", "value": 3.25, "unit": "min"}, {"measurement": "plasma levels after multiple doses / steady state, dose proportionality", "setting": "[3]; in vivo", "value": "approximately dose-proportional"}, {"measurement": "plasma exposures after single doses, dose proportionality", "setting": "[3]", "value": "substantial non-linearity"}, {"measurement": "estimated target capacity / capacity of saturable distribution", "setting": "[3]", "value": "~3", "unit": "mg"}]}, {"smiles": "N#Cc1ccc(-c2ccc(S(=O)(=O)Nc3cccc(N)n3)cc2)cc1", "note": "[PF915275]", "values": [{"measurement": "residence time", "setting": "HSD-1 [1]", "value": 5.07, "unit": "min"}, {"measurement": "GC-induced wound healing impairment", "setting": "mouse", "value": "prevented"}]}, {"smiles": "O=C(c1csc(-c2cn[nH]c2)c1)N1[C@@H]2CC[C@H]1C[C@](O)(c1ncccn1)C2", "note": "[UE-2343, (5-(1H-pyrazol-4-yl)thiophen-3-yl)((1R,3r,5S)-3-hydroxy-3-(pyrimidin-2-yl)-8-azabicyclo[3.2.1]octan-8-yl)methanone]", "values": [{"measurement": "residence time", "setting": "HSD-1 [1]", "value": 9.05, "unit": "min"}, {"measurement": "plasma levels after single doses of 2 and 5 mg", "setting": "[3]; in vivo", "value": "below the level of quantification"}, {"measurement": "plasma exposures after single doses, dose proportionality", "setting": "[3]", "value": "greater than dose-proportional"}, {"measurement": "mean maximum plasma concentration", "setting": "[3]; single 10 mg dose", "value": 40.4, "unit": "ng/mL"}]}]}
